In patent publication US20200361871A1 (Enterprise Therapeutics Ltd., priority 2018, published 2020):

Target: human TMEM16A (TMEM16Aabc variant) (Homo sapiens, UniProt Q5XXA6, DEL476-501, form not given)
Assay: Automated whole-cell patch clamp (Qpatch) TMEM16A potentiator assay in FRT cells stably expressing human TMEM16A
Assay type: cell-based
Settings: for % Potentiation @ 3.33 μM Avg: 3.33 μM solution of test compound, percentage increase of baseline TMEM16A current; for EC50: calculated EC50, Qpatch TMEM16A current at +70 mV
How it was run: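 FRT cells stably expressing human TMEM16Aabc were recorded by automated whole-cell patch clamp, with intracellular Ca2+ buffered for ~EC20 activation, holding −70 mV and step to +70 mV at 0.05 Hz. Compound was applied cumulatively, 5 min per concentration. Peak current increase as % of baseline was fitted to give EC50 and maximum efficacy.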

Chain of human TMEM16A (TMEM16Aabc variant) (Q5XXA6 with tags, fused parts or gaps DEL476-501): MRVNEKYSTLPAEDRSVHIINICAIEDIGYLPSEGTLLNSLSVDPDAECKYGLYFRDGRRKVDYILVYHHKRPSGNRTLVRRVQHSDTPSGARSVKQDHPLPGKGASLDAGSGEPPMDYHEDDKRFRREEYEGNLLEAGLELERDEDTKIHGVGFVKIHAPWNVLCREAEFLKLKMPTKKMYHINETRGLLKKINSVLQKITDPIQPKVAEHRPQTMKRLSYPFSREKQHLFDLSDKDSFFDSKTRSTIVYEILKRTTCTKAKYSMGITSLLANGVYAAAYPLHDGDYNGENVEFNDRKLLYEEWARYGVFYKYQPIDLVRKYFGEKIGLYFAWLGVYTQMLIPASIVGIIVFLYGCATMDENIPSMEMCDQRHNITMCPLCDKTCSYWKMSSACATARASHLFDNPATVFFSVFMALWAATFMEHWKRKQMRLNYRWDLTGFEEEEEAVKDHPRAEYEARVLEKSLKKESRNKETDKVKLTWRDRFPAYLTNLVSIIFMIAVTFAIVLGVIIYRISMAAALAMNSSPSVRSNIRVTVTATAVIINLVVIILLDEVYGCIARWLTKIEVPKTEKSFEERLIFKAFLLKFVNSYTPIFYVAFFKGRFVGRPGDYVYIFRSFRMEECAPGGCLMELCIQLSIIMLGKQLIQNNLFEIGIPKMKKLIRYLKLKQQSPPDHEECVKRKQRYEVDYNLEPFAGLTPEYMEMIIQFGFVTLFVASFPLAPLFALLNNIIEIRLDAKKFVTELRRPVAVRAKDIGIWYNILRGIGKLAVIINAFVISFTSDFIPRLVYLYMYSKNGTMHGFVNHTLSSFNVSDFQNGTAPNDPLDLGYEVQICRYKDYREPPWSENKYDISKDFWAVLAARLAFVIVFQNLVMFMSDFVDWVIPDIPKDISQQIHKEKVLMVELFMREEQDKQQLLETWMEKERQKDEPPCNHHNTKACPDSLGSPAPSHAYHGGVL

| Structure (SMILES) | % Potentiation @ 3.33 μM Avg [%] | EC50 [nM] |
| --- | --- | --- |
| O=C(Cc1cc(Cl)ccc1O)Nc1ccnc(C(=O)N[C@@H]2CCC[C@@H]2O)c1 [Example 35.18, 4-[[2-(5-Chloro-2-hydroxy-phenyl)acetyl]amino]-N-[(1R,2S)-2-hydroxycyclopentyl]pyridine-2-carboxamide] | 147 | 430 |
| CC(C)(C#N)NC(=O)c1cc(NC(=O)C2(C)CCCC2)ccn1 [Example 83.4, N-(1-Cyano-1-methyl-ethyl)-4-[(1-methylcyclopentanecarbonyl)amino]pyridine-2-carboxamide] | 58 | – |
| COc1ccc(C(=O)NC(C)(C)C)cc1NC(=O)Cc1cc(Cl)ccc1O [Example 16, N-tert-Butyl-3-[[2-(5-chloro-2-hydroxy-phenyl)acetyl]amino]-4-methoxy-benzamide] | 63 | – |
| CC(C)(C)C(C)(C)NC(=O)c1cccc(NC(=O)Cc2cc(Cl)ccc2O)c1 [Example 7, 3-[[2-(5-Chloro-2-hydroxy-phenyl)acetyl]amino]-N-(1,1,2,2-tetramethylpropyl) benzamide] | 153 | 650 |
| CC(C)(C)NC(=O)c1cc(NC(=O)Cc2ccc(C(C)(C)C)c(N)c2)ccn1 [Example 87, 4-[[2-(3-Amino-4-tert-butyl-phenyl)acetyl]amino]-N-tert-butyl-pyridine-2-carboxamide] | 332 | 220 |
| CC(C)(C)NC(=O)c1cc(NC(=O)C2CCCc3ccccc32)ccn1 (stereo not shown) [Example 5.27, N-tert-Butyl-4-(tetralin-1-carbonylamino) pyridine-2-carboxamide] | 84 | – |
| CC(C)(NC(=O)c1cc(NC(=O)Cc2cc(Cl)ccc2O)ccn1)c1ccccc1 [Example 94, 4-[[2-(5-Chloro-2-hydroxy-phenyl)acetyl]amino]-N-(1-methyl-1-phenyl-ethyl) pyridine-2-carboxamide] | 516 | 340 |
| C#CC(C)(C)NC(=O)c1cc(NC(=O)Cc2cccc(C(F)(F)F)c2)ccn1 [Example 5.37, N-(1,1-Dimethylprop-2-ynyl)-4-[[2-[3-(trifluoromethyl)phenyl]acetyl]amino]pyridine-2-carboxamide] | 117 | 150 |
| CC(C)(C)NC(=O)c1cc(NC(=O)Cc2c(Cl)cccc2Cl)ccn1 [Example 5.17, N-tert-Butyl-4-[[2-(2,6-dichlorophenyl)acetyl]amino]pyridine-2-carboxamide] | 94 | 650 |
| CC(C)(CO)NC(=O)c1cc(NC(=O)Cc2cc(Cl)ccc2O)ccn1 [Example 32.7, 4-[[2-(5-Chloro-2-hydroxy-phenyl)acetyl]amino]-N-(2-hydroxy-1,1-dimethyl-ethyl)pyridine-2-carboxamide] | 111 | 200 |
| CC(C)(C)C1CCC(NC(=O)c2cc(NC(=O)Cc3cc(Cl)ccc3O)ccn2)CC1 (stereo not shown) [Example 39, N-(4-tert-Butylcyclohexyl)-4-[[2-(5-chloro-2-hydroxy-phenyl)acetyl]amino]pyridine-2-carboxamide] | 262 | 60 |
| CC(C)(C)NC(=O)c1cc(NC(=O)Cc2cc(Cl)ccc2O)c(F)cn1 [Example 28, N-tert-butyl-4-[[2-(5-chloro-2-hydroxy-phenyl)acetyl]amino]-5-fluoro-pyridine-2-carboxamide] | 318 | 400 |
| O=C(Cc1cc(F)ccc1O)Nc1ccnc(C(=O)NC23CCC(F)(C2)C3)c1 [Example 81.4, N-(4-Fluoro-1-bicyclo[2.1.1]hexanyl)-4-[[2-(5-fluoro-2-hydroxy-phenyl)acetyl]amino] pyridine-2-carboxamide] | 122 | 40 |
| CC(C)(C)NC(=O)c1cc(NC(=O)Cc2cc(Cl)cc(Br)c2O)ccn1 [Example 59, 4-[[2-(3-Bromo-5-chloro-2-hydroxy-phenyl)acetyl]amino]-N-tert-butyl-pyridine-2-carboxamide] | 175 | – |
| C#CC1(NC(=O)c2cc(NC(=O)Cc3ccccc3Cl)ccn2)CCOCC1 [Example 30.11, 4-[[2-(2-Chlorophenyl)acetyl]amino]-N-(4-ethynyltetrahydropyran-4-yl)pyridine-2-carboxamide] | 125 | 220 |
| CC(C)(C)OC(=O)N1C[C@@H]2[C@H](C1)[C@H]2NC(=O)c1cc(NC(=O)Cc2cc(Cl)ccc2O)ccn1 [Example 8.3, tert-Butyl (1r,5s,6s)-6-{4-[2-(5-chloro-2-hydroxyphenyl)acetamido]pyridine-2-amido}-3-azabicyclo[3.1.0]hexane-3-carboxylate] | 238 | 230 |
| Cc1cc(C(=O)Nc2ccnc(C(=O)NC(C)(C)C#N)c2)c(C)n1Cc1cccs1 [Example 83.26, N-(1-Cyano-1-methyl-ethyl)-4-[[2,5-dimethyl-1-(2-thienylmethyl)pyrrole-3-carbonyl]amino]pyridine-2-carboxamide] | 95 | – |
| CC(C)(C#N)NC(=O)c1cc(NC(=O)CC2CC3CCC2C3)ccn1 (stereo not shown) [Example 83.6, 4-(2-{Bicyclo[2.2.1]heptan-2-yl}acetamido)-N-(1-cyano-1-methylethyl)pyridine-2-carboxamide] | 248 | – |
| CC(C)(C)c1ccc(CC(=O)Nc2ccnc(C(=O)N[C@H]3CCC[C@@H]3O)c2)cc1O [Example 93.2, 4-[2-(4-tert-butyl-3-hydroxyphenyl)acetamido]-N-[(1S,2S)-2-hydroxycyclopentyl]pyridine-2-carboxamide] | 220 | 40 |
| CC(C)(C)NC(=O)c1cc(NC(=O)C2CCc3cccc(O)c32)ccn1 (stereo not shown) [Example 3.10b, N-tert-Butyl-4-[(7-hydroxyindane-1-carbonyl)amino]pyridine-2-carboxamide] | 159 | 460 |
| O=C(O)CCCCCCCCCCCNC(=O)c1cc(NC(=O)Cc2cc(Cl)ccc2O)ccn1 [Example 32.1, 12-[[4-[[2-(5-Chloro-2-hydroxy-phenyl)acetyl]amino]pyridine-2-carbonyl]amino]dodecanoic acid] | 246 | – |
| CC(C)(C)NC(=O)c1cccc(NC(=O)Cc2ccc(F)cc2O)c1 [Example 2.3, N-tert-Butyl-3-[[2-(4-fluoro-2-hydroxy-phenyl)acetyl]amino]benzamide] | 203 | 590 |
| C[C@](C#N)(CO)NC(=O)c1cc(NC(=O)Cc2cc(Cl)ccc2O)ccn1 (single isomer, unassigned) [Example 46a, 4-[[2-(5-Chloro-2-hydroxy-phenyl)acetyl]amino]-N-[(1S)-1-cyano-2-hydroxy-1-methyl-ethyl]pyridine-2-carboxamide or 4-[[2-(5-chloro-2-hydroxy-phenyl)acetyl]amino]-N-[(1R)-1-cyano-2-hydroxy-1-methyl-ethyl]pyridine-2-carboxamide] | 249 | 110 |
| N#CC1(NC(=O)c2cccc(NC(=O)Cc3cc(Cl)ccc3O)c2)CCOCC1 [Example 80, 3-[[2-(5-Chloro-2-hydroxy-phenyl)acetyl]amino]-N-(4-cyanotetrahydropyran-4-yl) benzamide] | 130 | – |
